Test results from patent US20180228818A1, “PHARMACEUTICAL COMPOSITION COMPRISING ASPRIN, METFORMIN, AND SEROTONIN WITH NON-IONIC SURFACTANT” (ALS MOUNTAIN LLC, priority 2014, published 2018).

Assay: Solubilization test of Poloxamer 188/407 to Aspirin in ethanol
Assay type: physicochemical
Settings: for Amount Dissolved: 10 ml, room temperature (30° C.)
Experimental: (1) 0%,10%, 20%, 30%, 40% (m/v) of Poloxamer 188/407 anhydrous ethanol solution were prepared respectively,10 ml of each solution was added into five sealed centrifuge tubes respectively (each centrifuge tube was numbered accordingly).
(2) Each centrifuge tube was added with adequate amount of Aspirin based on the pre-test data (please refer to Table 1: 0 h data), and shaken to dissolution at room temperature (30° C.).
0.1 g of Aspirin would be added into the tube when complete dissolution was observed, then sealed and continued shaking. In cases which the drug was not dissolved, the previous amount of drug dissolved would be recorded as the maximum amount needed for dissolution.
(4) Dissolution observation was continued until some amount of drug compound could not be dissolved.
(5) The observation of each tube was recorded in Table 1

## CC(=O)Oc1ccccc1C(=O)O [Aspirin, acetylsalicylic acid]
Poloxamer 188 0%
  Solubilization Rate: 0%
Poloxamer 188 0% (m/v) in anhydrous ethanol
  Amount Dissolved: 2.50 g
Poloxamer 188 10%
  Solubilization Rate: 12%
Poloxamer 188 10% (m/v) in anhydrous ethanol
  Amount Dissolved: 2.80 g
Poloxamer 188 20%
  Solubilization Rate: 20%
Poloxamer 188 20% (m/v) in anhydrous ethanol
  Amount Dissolved: 3.00 g
Poloxamer 188 30%
  Solubilization Rate: 24%
Poloxamer 188 30% (m/v) in anhydrous ethanol
  Amount Dissolved: 3.10 g
Poloxamer 188 40%
  Solubilization Rate: 28%
Poloxamer 188 40% (m/v) in anhydrous ethanol
  Amount Dissolved: 3.20 g
Poloxamer 188 and 407 anhydrous ethanol
  solubility of Aspirin: increases with Poloxamer concentration
Poloxamer 407 0%
  Solubilization Rate: 0%
Poloxamer 407 0% (m/v) in anhydrous ethanol
  Amount Dissolved: 2.50 g
Poloxamer 407 10%
  Solubilization Rate: 12%
Poloxamer 407 10% (m/v) in anhydrous ethanol
  Amount Dissolved: 2.80 g
Poloxamer 407 20%
  Solubilization Rate: 20%
Poloxamer 407 20% (m/v) in anhydrous ethanol
  Amount Dissolved: 3.00 g
Poloxamer 407 30%
  Solubilization Rate: 24%
Poloxamer 407 30% (m/v) in anhydrous ethanol
  Amount Dissolved: 3.10 g
Poloxamer 407 40%
  Solubilization Rate: 28%
Poloxamer 407 40% (m/v) in anhydrous ethanol
  Amount Dissolved: 3.20 g
